In ChEMBL document CHEMBL4699395, “Synthesis and evaluation of novel 2,4-disubstituted arylthiazoles against T. brucei” (RSC Med Chem, 2020):

Experiments:
[1] = test system: Trypanosoma brucei; experiment: Antitrypanosomal activity against Trypanosoma brucei 427 bloodstream form assessed as concentration required to inhibit 50% parasite growth incubated for 48 hrs by Alamar blue assay; format: functional, organism-based; conditions: Trypanosoma brucei, 427, 48 h
[2] = Selectivity index, ratio of IC50 for rat L6 cells assessed as cell growth inhibition incubated for 6 days by Alamar blue assay to IC50 for Trypanosoma brucei 427 bloodstream form assessed as parasite growth inhibition incubated for 48 hrs by Alamar blue assay; conditions: L6 cells (versus Trypanosoma brucei 427 bloodstream form)

Row | SMILES | IC50 [1] [µM] | selectivity ratio at 48 h [2]
1 | N=C(N)Nc1nc(-c2ccc(C34CC5CC(CC(C5)C3)C4)cc2)cs1 | 10 | –
2 | NCc1nc(-c2ccc(C34CC5CC(CC(C5)C3)C4)cc2)cs1 | – | < 1
